{"source": "ChEMBL document CHEMBL5465560", "about": "“Selectivity Literature for EUbOPEN Chemogenomic Library” (2024)", "key": {"[1]": {"target": "T1, Serine/threonine-protein kinase Nek1 (Homo sapiens) (UniProt Q96PY6)", "T1 sequence (whole entry)": "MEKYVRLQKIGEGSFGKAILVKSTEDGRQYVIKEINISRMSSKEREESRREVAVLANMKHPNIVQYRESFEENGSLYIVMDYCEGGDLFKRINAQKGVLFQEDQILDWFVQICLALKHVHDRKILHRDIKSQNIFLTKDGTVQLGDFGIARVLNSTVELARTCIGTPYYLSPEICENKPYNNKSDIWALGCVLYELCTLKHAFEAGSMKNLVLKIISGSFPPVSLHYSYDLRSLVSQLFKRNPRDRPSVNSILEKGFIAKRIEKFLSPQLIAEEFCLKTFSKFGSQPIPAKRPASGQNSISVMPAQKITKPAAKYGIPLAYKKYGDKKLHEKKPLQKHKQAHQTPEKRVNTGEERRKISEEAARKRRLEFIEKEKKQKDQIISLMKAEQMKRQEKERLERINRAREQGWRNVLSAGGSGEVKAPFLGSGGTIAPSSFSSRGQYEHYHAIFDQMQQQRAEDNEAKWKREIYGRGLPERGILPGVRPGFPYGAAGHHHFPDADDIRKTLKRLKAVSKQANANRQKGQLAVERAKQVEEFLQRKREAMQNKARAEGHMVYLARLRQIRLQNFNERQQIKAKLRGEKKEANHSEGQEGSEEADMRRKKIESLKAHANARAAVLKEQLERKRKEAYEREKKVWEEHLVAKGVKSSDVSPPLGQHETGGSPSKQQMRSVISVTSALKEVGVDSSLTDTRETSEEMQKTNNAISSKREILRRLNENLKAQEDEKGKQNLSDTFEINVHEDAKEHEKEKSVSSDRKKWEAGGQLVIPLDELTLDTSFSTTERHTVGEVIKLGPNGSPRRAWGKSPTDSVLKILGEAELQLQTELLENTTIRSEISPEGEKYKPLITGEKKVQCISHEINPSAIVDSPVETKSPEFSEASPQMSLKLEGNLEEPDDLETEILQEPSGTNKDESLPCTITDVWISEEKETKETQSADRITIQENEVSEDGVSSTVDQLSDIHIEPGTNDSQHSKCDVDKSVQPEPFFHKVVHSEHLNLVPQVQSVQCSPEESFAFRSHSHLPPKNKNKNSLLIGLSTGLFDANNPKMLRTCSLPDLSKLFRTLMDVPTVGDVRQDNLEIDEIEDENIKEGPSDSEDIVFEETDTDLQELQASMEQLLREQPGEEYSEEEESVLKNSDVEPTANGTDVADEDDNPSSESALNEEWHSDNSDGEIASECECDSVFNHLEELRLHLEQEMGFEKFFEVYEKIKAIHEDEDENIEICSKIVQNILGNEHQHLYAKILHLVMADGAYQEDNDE", "test": "Selectivity interaction (Kinase panel (DSF assay)) EUB0001559a NEK1"}, "[2]": {"target": "Serine/threonine-protein kinase/endoribonuclease IRE1 (Homo sapiens) (UniProt O75460)", "sequence (O75460 19-977 limits assumed)": "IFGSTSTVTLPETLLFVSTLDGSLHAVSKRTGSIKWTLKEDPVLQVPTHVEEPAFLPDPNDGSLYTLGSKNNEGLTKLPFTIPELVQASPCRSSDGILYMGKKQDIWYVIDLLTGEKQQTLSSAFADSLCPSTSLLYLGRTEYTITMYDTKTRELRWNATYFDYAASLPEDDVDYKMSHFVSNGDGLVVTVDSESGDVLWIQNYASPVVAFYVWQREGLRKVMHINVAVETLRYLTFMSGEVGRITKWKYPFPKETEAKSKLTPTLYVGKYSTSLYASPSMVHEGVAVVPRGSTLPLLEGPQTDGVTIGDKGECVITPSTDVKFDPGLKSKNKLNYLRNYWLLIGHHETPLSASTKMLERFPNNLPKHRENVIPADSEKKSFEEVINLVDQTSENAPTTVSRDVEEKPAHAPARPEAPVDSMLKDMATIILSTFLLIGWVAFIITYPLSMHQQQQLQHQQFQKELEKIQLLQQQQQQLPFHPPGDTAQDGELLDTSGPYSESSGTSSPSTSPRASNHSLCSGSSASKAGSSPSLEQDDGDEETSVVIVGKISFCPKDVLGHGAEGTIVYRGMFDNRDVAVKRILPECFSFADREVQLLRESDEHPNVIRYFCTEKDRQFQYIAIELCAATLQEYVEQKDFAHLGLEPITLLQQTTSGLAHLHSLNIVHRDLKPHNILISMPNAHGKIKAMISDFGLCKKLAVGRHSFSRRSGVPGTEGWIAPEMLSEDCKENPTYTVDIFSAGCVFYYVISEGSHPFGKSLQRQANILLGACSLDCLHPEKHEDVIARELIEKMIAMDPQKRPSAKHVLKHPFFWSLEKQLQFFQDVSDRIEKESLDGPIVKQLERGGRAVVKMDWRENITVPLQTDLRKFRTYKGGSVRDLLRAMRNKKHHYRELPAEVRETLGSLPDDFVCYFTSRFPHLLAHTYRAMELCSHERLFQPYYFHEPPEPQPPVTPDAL", "test": "Selectivity interaction (KinomeScan (DiscoverX)) EUB0000666a ERN1", "conditions": "at 10 µM"}, "[3]": {"target": "Kappa-type opioid receptor (Homo sapiens, UniProt P41145)", "sequence (P41145 whole entry)": "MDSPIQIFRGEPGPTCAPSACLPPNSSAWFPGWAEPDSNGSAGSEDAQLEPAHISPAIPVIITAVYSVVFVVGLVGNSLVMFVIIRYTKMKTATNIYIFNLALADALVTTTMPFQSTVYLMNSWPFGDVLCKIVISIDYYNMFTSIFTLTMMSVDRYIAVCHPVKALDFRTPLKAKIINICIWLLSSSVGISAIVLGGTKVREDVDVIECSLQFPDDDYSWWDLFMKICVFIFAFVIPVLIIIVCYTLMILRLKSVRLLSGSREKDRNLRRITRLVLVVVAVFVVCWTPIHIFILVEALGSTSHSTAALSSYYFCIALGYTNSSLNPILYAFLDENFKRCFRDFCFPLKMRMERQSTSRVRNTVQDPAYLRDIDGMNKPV", "test": "Selectivity interaction (Panel of non-epigenetic targets (kinases, GPCRs, ion channels, and transporters, Eurofins) ) EUB0000271b OPRK1", "conditions": "at 1 µM"}, "[4]": {"target": "T2, Receptor-interacting serine/threonine-protein kinase 1 (Homo sapiens) (UniProt Q13546)", "T2 sequence (whole entry)": "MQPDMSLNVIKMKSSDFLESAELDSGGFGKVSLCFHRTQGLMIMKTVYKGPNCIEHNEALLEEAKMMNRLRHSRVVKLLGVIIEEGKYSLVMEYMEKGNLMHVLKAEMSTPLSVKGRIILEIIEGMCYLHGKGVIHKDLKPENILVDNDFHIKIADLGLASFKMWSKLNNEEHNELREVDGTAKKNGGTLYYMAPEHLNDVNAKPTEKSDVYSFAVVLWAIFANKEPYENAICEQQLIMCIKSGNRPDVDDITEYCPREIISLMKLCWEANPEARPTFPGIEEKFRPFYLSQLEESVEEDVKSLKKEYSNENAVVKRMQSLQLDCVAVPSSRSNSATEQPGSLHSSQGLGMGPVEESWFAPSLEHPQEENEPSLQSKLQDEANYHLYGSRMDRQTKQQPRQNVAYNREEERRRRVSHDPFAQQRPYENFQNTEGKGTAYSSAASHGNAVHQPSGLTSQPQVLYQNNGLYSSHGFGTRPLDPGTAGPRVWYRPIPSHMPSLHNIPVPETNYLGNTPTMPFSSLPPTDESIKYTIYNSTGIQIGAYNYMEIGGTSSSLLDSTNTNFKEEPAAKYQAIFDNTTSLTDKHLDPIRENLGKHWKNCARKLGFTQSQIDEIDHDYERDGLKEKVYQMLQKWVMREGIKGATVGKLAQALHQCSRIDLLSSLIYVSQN", "test": "Selectivity interaction (KinomeScan (DiscoverX)) EUB0001619a RIPK1", "conditions": "at 1 µM"}, "[5]": {"target": "Cyclin-dependent kinase 9 (Homo sapiens, UniProt P50750)", "sequence (P50750 whole entry)": "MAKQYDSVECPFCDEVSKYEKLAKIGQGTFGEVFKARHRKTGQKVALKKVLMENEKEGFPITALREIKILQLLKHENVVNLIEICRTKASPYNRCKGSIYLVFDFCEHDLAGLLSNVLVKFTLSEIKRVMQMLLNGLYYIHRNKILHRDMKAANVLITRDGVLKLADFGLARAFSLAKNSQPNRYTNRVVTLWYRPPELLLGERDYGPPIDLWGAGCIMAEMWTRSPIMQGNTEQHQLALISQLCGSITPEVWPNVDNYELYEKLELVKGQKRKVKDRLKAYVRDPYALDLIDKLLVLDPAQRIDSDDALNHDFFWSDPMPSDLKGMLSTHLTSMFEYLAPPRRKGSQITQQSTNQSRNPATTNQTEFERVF", "test": "Selectivity interaction (SelectScreen Kinase Profiling (Thermo Fisher Scientific)) EUB0001558a CDK9", "conditions": "at 1 µM"}, "[6]": {"target": "Ribosomal protein S6 kinase alpha-3 (Homo sapiens, UniProt P51812)", "sequence (P51812 whole entry)": "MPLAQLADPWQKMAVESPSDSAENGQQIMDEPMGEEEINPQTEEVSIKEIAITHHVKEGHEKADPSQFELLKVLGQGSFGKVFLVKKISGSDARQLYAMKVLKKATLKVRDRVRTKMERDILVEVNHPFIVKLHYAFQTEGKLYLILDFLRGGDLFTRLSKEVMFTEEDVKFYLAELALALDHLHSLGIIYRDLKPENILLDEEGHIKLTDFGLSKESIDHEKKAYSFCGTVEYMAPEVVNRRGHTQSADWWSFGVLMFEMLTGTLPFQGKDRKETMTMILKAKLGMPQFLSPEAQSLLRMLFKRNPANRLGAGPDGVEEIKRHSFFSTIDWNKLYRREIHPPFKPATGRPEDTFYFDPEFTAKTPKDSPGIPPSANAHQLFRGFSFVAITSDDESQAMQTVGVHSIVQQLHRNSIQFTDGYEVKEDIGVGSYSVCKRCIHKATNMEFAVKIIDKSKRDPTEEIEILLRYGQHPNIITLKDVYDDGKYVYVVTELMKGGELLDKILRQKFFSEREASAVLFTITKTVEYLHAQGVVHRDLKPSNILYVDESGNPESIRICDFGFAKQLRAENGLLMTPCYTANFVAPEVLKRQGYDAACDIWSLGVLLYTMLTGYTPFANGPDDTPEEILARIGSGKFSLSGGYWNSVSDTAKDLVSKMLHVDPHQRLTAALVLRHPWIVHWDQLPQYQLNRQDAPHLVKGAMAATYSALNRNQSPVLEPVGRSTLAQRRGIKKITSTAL", "test": "Selectivity interaction (KinomeScan (DiscoverX)) EUB0000618a RPS6KA3", "conditions": "at 10 µM"}, "[7]": {"target": "Myosin light chain kinase 2, skeletal/cardiac muscle (Homo sapiens) (UniProt Q9H1R3)", "sequence (Q9H1R3 whole entry)": "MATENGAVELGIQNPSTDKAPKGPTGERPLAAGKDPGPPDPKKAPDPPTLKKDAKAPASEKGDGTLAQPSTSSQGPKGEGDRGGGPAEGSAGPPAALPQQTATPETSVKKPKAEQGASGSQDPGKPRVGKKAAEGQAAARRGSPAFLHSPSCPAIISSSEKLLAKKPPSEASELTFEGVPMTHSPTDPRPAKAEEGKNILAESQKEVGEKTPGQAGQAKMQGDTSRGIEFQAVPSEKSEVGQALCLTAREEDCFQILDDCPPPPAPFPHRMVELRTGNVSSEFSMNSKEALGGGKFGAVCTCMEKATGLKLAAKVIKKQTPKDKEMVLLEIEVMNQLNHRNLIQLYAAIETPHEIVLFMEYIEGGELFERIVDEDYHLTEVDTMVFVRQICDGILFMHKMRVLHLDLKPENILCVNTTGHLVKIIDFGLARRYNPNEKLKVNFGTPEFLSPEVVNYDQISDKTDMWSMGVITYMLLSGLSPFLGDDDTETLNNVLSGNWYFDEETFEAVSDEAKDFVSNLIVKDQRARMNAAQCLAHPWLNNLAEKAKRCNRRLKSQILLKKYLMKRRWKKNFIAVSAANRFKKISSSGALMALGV", "conditions": "at 10 µM"}, "[8]": {"test": "Selectivity interaction (KinomeScan (DiscoverX)) EUB0000092b PKNB", "conditions": "at 10 µM"}}, "data": [{"smiles": "CN(C(=O)c1cnn2cccnc12)c1cc2c(cc1N1CCOCC1)C(=O)N(C[C@@H](F)C(C)(C)O)C2", "values": [{"measurement": "dTM", "setting": "[1]", "value": 0.4, "unit": "K"}]}, {"smiles": "O=C(NOC[C@H](O)CO)c1ccc(F)c(F)c1Nc1ccc(I)cc1F", "values": [{"measurement": "% of control", "setting": "[2]", "value": 97, "unit": "%"}]}, {"smiles": "Cc1cc(C)cc([C@@H]2c3cc(C)ccc3NC(=O)CN2C(=O)c2ccc(Br)s2)c1", "values": [{"measurement": "% of inhibition", "setting": "[3]", "value": 20, "unit": "%"}]}, {"smiles": "N#Cc1cccc(-c2c[nH]c3ncnc(N4CCOCC4)c23)c1", "values": [{"measurement": "% of control", "setting": "[4]", "value": 100, "unit": "%"}]}, {"smiles": "CC(C)(O)[C@H](F)CN1Cc2cc(NC(=O)c3cnn4cccnc34)c(N3CCOCC3)cc2C1=O", "values": [{"measurement": "% of inhibition", "setting": "[5]", "value": 74.5, "unit": "%"}]}, {"smiles": "O[C@H]1CC[C@H](Nc2ncc3nc(Nc4c(F)cc(F)cc4F)n([C@H]4CCOC4)c3n2)CC1", "values": [{"measurement": "% of control", "setting": "[6]", "value": 60, "unit": "%"}]}, {"smiles": "CCN(CC)CCCCNc1ncc2cc(-c3cc(OC)cc(OC)c3)c(NC(=O)NC(C)(C)C)nc2n1", "values": [{"measurement": "% of control", "setting": "[7]", "value": 100, "unit": "%"}]}, {"smiles": "CCC(=O)N1CCN(c2ccc(-n3c(=O)ccc4cnc5ccc(-c6cnc7ccccc7c6)cc5c43)cc2C(F)(F)F)CC1", "values": [{"measurement": "% of control", "setting": "[8]", "value": 64, "unit": "%"}]}]}
